Assays:
recombinant caspase-6 = target: T1, recombinant caspase-6 (Homo sapiens, UniProt P55212); assay: Simultaneous caspase-6 cleavage and 586 fragment detection by FRET; format: biochemical; conditions: cell-free; Htt substrate from COS-7 cell lysates
T1 construct: purchased BioMol
T1 sequence (P55212 24-293): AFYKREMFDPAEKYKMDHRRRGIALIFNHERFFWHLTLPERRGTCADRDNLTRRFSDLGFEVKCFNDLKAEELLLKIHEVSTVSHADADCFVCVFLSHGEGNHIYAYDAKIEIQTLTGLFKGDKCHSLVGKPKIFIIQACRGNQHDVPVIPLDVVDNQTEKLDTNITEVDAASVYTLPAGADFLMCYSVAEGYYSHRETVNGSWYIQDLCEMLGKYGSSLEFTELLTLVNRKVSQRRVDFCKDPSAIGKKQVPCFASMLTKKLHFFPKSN
Procedure: Different concentrations of the PG3 compounds were incubated with the Htt protein and the caspase-6 enzyme. The Htt substrate from COS-7 cell lysates is cleaved by caspase 6 and fragments are detected by FRET between the N-terminal BKP1 antibody and the neo-epitope antibody against amino acid 586.
COS-7 cells were grown in DMEM supplemented with 10% fetal bovine serum, 1%/penicillin/streptomycin and 0.5% glutamine. Transfections were performed using the Fugene reagent (Roche) according to manufacturer's instructions. The transfected DNA encodes amino acids 1-1212 of the human Htt protein with 15 glutamines and a C-terminal HA-tag, under control of a CMV promoter (Warby, 2008, supra; Wellington et al., 2000. J Biol Chem 275:19831-19838). The construct that was transfected is 4c Htt, which contains D→A mutations at amino acids 513, 530, 552 and […] (SEQ ID NO: 1). 24 h after transfection, cells were harvested by trypsinization, pellets washed in PBS and lysed by suspension in lysis buffer (50 mM Tris pH 8, 150 mM NaCl, 1% Igepal, supplemented with 1× complete protease inhibitor (Roche) and 4 mM Pefabloc). Lysates were incubated on ice for 10 min, vortexed and sonicated for 4 sec before centrifugation at 21,000×g for 10 min at 4° C. Supernatants were saved, protein concentration determined with the Biorad DC assay and stored at −80° C. until use.
Dilution series of cell lysates and caspase-6 (2.2× final concentration) were prepared in FRET cleavage buffer (10 mM HEPES pH 7.4, 100 mM NaCl, 0.05% gelatin, 0.1% CHAPS, 2 mM DTT) since this buffer was previously found to best stabilize caspase-6 in dilute form at room temperature. For negative controls, 22 μM zVAD-fmk was added to the caspase-6 dilutions.
Tb-labelled BKP1 antibody and D2-labelled 586 antibody (Cisbio) were diluted to 1 ng/μl (Tb) and 10 ng/μl (D2) in FRET cleavage buffer and pre-mixed at a 1:1 ratio.
In each well of a white 384 well plate (Nunc), 10 μl cell lysate were mixed with 10 μl caspase and 2 μl antibody mix, the plate was centrifuged briefly and incubated in the Victor 3 multilabel plate reader (Perkin Elmer) at 37° C. FRET was measured every 30 min for up to 2 h with the following settings: Excitation: 340 nm, Emission 1: 615 nm, Emission 2: 665 nm, 50 μs delay, 200 μs window time, 2000 μs cycle time. To obtain the final FRET signal, the ratio between Emission 2/Emission 1 (D2/Tb signal) was calculated. After 2 h at 37° C., the assay plate was sealed and after further incubation at 4° C. for 20 h, the FRET signal was read again.

[1] = target: T2, full-length human caspase-6 (Homo sapiens, UniProt P55212); assay: Western blot of Htt fragments in COS-7 cells co-transfected with Htt 1-1212AA and full-length caspase-6; format: cell-based; conditions: 10 uM compound, 24 hr, vs DMSO
T2 construct: DDK-tag (C); expressed in transfected cells; host or cells: COS-7
T2 sequence (P55212 with tags, fused parts or gaps): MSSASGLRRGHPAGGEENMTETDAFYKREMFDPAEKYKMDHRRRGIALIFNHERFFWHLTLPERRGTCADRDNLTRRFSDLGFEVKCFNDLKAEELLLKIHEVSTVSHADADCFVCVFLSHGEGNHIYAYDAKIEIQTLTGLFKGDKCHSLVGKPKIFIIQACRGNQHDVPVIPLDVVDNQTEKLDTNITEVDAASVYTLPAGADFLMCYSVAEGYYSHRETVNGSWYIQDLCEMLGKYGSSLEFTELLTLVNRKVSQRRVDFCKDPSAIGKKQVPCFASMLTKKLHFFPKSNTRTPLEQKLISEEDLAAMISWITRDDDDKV
Procedure: COS-7 cells were co-transfected with the 1212 amino acid HTT fragment (SEQ ID NO: 3) and the full length human caspase-6 enzyme (SEQ ID NO:4). The co-transfected cells were exposed to either 10 uM of the PG3d compound, 3 uM of the Q-VD-Oph pan-caspase inhibitor or were treated with DMSO as a control. An aliquot of the cell lysates were subjected to Western blotting to detect HTT fragments with the Htt antibody 2166 (Millipore) and the presence of caspase-6 was detected using the HD91 antibody (Ehrnhoefer et al, HMG, 2014. 23(3):717-29). The remaining cell lysates (500 ug protein) were immunoprecipitated with 5 ug of Caspase-6 antibody for 16 hrs at 4 C. The immunoprecipitated proteins were then applied to acrylamide gels and immunoblotted to detect either the HTT fragments or the presence of the active caspase 6 enzyme using the antibodies described above.
Cos-7 cells were co-transfected with Htt 1-1212AA (SEQ ID NO:3) and full-length human caspase-6 (SEQ ID NO:6), and exposed to either the pan-caspase inhibitor Q-VD-OPh, the PG3d compound or DMSO as a negative control. As shown in the upper panel of FIG. 9A, control cells that received DMSO alone (lanes labelled n.t.) show the presence of the Htt 1212AA protein and the Htt proteolytic cleavage fragments including the 586, 552 and 513 amino acid fragments. […]

O=c1oc(C#Cc2ccccc2)nc(O)c1Cc1ccccc1 [PG-3d, 5-Benzyl-4-hydroxy-2-(phenylethynyl)-6H-1,3-oxazin-6-one]
IC50 (recombinant caspase-6): 5.6 µM | level of the 586AA Htt fragment [1]: reduction | melting point: 179 to 181 °C

— patent US20190192524A1, “Modulators of Caspase-6” (The University of British Columbia, priority 2014, published 2019)
